# Reference: publication PMC12394665, “Structural and biochemical basis for activity of Aspergillus nidulans α-1,3-glucanases from glycoside hydrolase family 71” (Communications Biology, 2025)
# Tests used:
# AnGH71C [1] = molecular target: T1, AnGH71C (Aspergillus nidulans, UniProt G5EB58); test: X-ray crystal structure (soak), […] Å; conditions: crystal soaked 2 min with saturating ligand; two glucose molecules in the binding cleft per protein molecule
# T1 construct: gene ANIA_07349; putative signal peptide removed; N-terminal His6 tag, modified pET-28a with TEV site; recombinant E. coli BL21 (DE3); IMAC and gel filtration
# T1 sequence (G5EB58 23-431): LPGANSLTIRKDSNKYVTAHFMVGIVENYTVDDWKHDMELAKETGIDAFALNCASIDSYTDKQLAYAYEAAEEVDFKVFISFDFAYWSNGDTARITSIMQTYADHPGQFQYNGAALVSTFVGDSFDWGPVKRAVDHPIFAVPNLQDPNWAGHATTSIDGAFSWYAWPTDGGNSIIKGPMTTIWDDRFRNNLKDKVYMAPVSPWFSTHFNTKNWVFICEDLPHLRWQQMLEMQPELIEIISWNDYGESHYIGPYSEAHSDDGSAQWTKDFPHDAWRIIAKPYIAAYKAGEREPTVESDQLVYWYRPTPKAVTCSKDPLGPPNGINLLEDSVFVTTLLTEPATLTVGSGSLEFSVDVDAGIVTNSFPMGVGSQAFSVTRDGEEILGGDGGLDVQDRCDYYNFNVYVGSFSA
# AnGH71C [2] = molecular target: T1, AnGH71C; test: X-ray crystal structure (soak), […] Å; type: binding
smiles,measurement,setting,value
OC[C@H]1OC(O)[C@H](O)[C@@H](O)[C@@H]1O (stereo partly drawn) [glucose],"X-ray crystal structure (soak), 1.37 Å",AnGH71C [1],glucose-soaked crystals each contain two glucose molecules located in the same position
OC[C@H]1O[C@H](O[C@@H]2[C@@H](O)[C@@H](O[C@@H]3[C@@H](O)[C@@H](O[C@H]4[C@H](O)[C@@H](CO)OC(O)[C@@H]4O)O[C@H](CO)[C@H]3O)O[C@H](CO)[C@H]2O)[C@H](O)[C@@H](O)[C@@H]1O (stereo partly drawn) [nigerotetraose],"X-ray crystal structure (soak), 1.92 Å","AnGH71C [2]; crystal soaked 2 min with saturating ligand, active-site cleft, -4 to -1 subsites among others, α- and β-anomers",Complexes of AnGH71C with glucose and nigerotriose/nigerotetraose were obtained by soaking crystals with ligand
OC[C@H]1O[C@H](O[C@@H]2[C@@H](O)[C@@H](O[C@H]3[C@H](O)[C@@H](CO)OC(O)[C@@H]3O)O[C@H](CO)[C@H]2O)[C@H](O)[C@@H](O)[C@@H]1O (stereo partly drawn) [nigerotriose],"X-ray crystal structure (soak), 1.92 Å","AnGH71C [2]; crystal soaked with nigerotetraose, nigerotriose in active-site cleft subsites, one extra on cleft surface in chain B",four protein molecules of the nigerotetraose-soaked crystals contain distinct combinations of nigerotriose and nigerotetraose
